Reference: ChEMBL document CHEMBL1821550 (Bioorg Med Chem Lett, 2011)

Assay: physchem
Details: octanol/water

Row | Structure (SMILES) | logD
1 | Cc1ccc(-c2ccc3cc(CCN4CCC[C@H]4C)ccc3n2)c(C)n1 | 3.1
2 | Cc1ccc(-c2ccc3cc(CCN4CCC[C@H]4C)ccc3n2)cn1 | 2.8
3 | Cc1nc(C)c(-c2ccc3cc(CCN4CCC[C@H]4C)ccc3n2)o1 | 2.4
4 | C[C@@H]1CCCN1CCc1ccc2nc(-c3ccncc3)ccc2c1 | 2.5
5 | C[C@@H]1CCCN1CCc1ccc2nc(-c3ccc(Cl)nc3)ccc2c1 | 3.4
6 | Cc1c(-c2ccc3cc(CCN4CCC[C@H]4C)ccc3n2)cnn1-c1ccc(N(C)C)nn1 | 3
7 | Cc1c(-c2ccc3cc(CCN4CCC[C@H]4C)ccc3n2)cnn1-c1ccc(Cl)c(Cl)c1 | 5.4
8 | C[C@@H]1CCCN1CCc1ccc2nc(-c3csc(-c4cc(Cl)nc(Cl)c4)n3)ccc2c1 | 5
9 | Cc1[nH]ncc1-c1ccc2cc(CCN3CCC[C@H]3C)ccc2n1 | 2.4
10 | Cc1nc(C)c(-c2ccc3cc(CCN4CCC[C@H]4C)ccc3n2)s1 | 2.9
11 | C[C@@H]1CCCN1CCc1ccc2nc(-c3cccnc3)ccc2c1 | 2.5
12 | C[C@@H]1CCCN1CCc1ccc2nc(-c3ccn[nH]3)ccc2c1 | 2.4
13 | C[C@@H]1CCCN1CCc1ccc2nc(-c3cn[nH]c3)ccc2c1 | 2.1
14 | Cc1n[nH]c(C)c1-c1ccc2cc(CCN3CCC[C@H]3C)ccc2n1 | 2.5
15 | Cc1c(-c2ccc3cc(CCN4CCC[C@H]4C)ccc3n2)cnn1C | 2.5
16 | Cc1cc(C(F)(F)F)cc(-n2ncc(-c3ccc4cc(CCN5CCC[C@H]5C)ccc4n3)c2C)n1 | 4.6
17 | C[C@@H]1CCCN1CCc1ccc2nc(-c3csc(-c4ccccc4)n3)ccc2c1 | 4.4
18 | C[C@@H]1CCCN1CCc1ccc2nc(-c3csc(-c4ccc(OCC(F)(F)F)nc4)n3)ccc2c1 | 4.8
19 | Cc1ccc(-c2ccc(-c3ccc4cc(CCN5CCC[C@H]5C)ccc4n3)s2)s1 | 5.5
20 | C[C@@H]1CCCN1CCc1ccc2nc(C(C)(C)C)ccc2c1 | 3.6
21 | C[C@@H]1CCCN1CCc1ccc2nc(C3=NCCS3)ccc2c1 | 2.7
22 | C[C@@H]1CCCN1CCc1ccc2nc(-c3c(O)ccnc3C(F)(F)F)ccc2c1 | 3.6

Row | Structure (SMILES) | logD
23 | C[C@@H]1CCCN1CCc1ccc2nc(-c3ccc(C#N)cc3)ccc2c1 | 3.5
24 | C[C@@H]1CCCN1CCc1ccc2nc(-c3cncnc3)ccc2c1 | 1.9
25 | C[C@@H]1CCCN1CCc1ccc2nc(-c3cnccn3)ccc2c1 | 1.8
26 | C[C@@H]1CCCN1CCc1ccc2ncccc2c1 | 1.7
27 | Cc1ccc2cc(CCN3CCC[C@H]3C)ccc2n1 | 2
28 | C[C@@H]1CCCN1CCc1ccc2nc(C3CC3)ccc2c1 | 2.7
29 | C[C@@H]1CCCN1CCc1ccc2nc(-c3cc(Br)no3)ccc2c1 | 3.4
30 | C[C@@H]1CCCN1CCc1ccc2nc(-c3nccs3)ccc2c1 | 2.5
31 | c1csc(-c2ccc(OCCCN3CCCCC3)cc2)c1 | 2.8
32 | c1coc(-c2ccc(OCCCN3CCCCC3)cc2)c1 | 2.3
33 | c1cc(C2CCCO2)ccc1OCCCN1CCCCC1 (configuration not stated) | 1.7
34 | c1c[nH]c(-c2ccc(OCCCN3CCCCC3)cc2)n1 | 1.6
35 | Cn1nccc1-c1ccc(OCCCN2CCCCC2)cc1 | 1.8
36 | c1ncc(-c2ccc(OCCCN3CCCCC3)cc2)o1 | 1.1
37 | c1cc(C2=NCCO2)ccc1OCCCN1CCCCC1 | 1.3
38 | C1=C(c2ccc(OCCCN3CCCCC3)cc2)CCC1 | 2.9
39 | c1cc(C2CCCCC2)ccc1OCCCN1CCCCC1 | 3.6
40 | c1cc(N2CCCCC2)ccc1OCCCN1CCCCC1 | 1.7
41 | c1cc(C2CCCCO2)ccc1OCCCN1CCCCC1 (configuration not stated) | 2.1
42 | c1cc(C2CCOCC2)ccc1OCCCN1CCCCC1 | 1.8
43 | c1cc(-c2ccc3c(c2)OCO3)ccc1OCCCN1CCCCC1 | 2.7
44 | COc1ccccc1-c1ccc(OCCCN2CCCCC2)cc1 | 2.9

Row | Structure (SMILES) | logD
45 | O=C(c1ccccc1-c1ccc(OCCCN2CCCCC2)cc1)N1CCCCC1 | 3.2
46 | CCOC(=O)c1ccc(-c2ccc(OCCCN3CCCCC3)cc2)cc1 | 3.1
47 | CN(C)C1CCC(c2ccc(OCCCN3CCCCC3)cc2)CC1 (configuration not stated) | 1.4
48 | Cc1nc(C)c(-c2ccc3cc(CCN4CCCC4C)ccc3n2)cc1C#N (configuration not stated) | 2.9
49 | Cc1nc(C)c(-c2ccc3cc(CCN4CCCC4C)ccc3n2)cc1C(N)=O (configuration not stated) | 2.1
50 | COC(=O)c1c(C)noc1-c1ccc2cc(CCN3CCC[C@H]3C)ccc2n1 | 2.5
51 | COC(=O)c1cc(-c2ccc3cc(CCN4CCC[C@H]4C)ccc3n2)on1 | 2.7
52 | CC1CCCN1CCc1ccc2nc(-c3ccoc3)ccc2c1 (configuration not stated) | 2.7
53 | CC1CCCN1CCc1ccc2nc(-c3ccsc3)ccc2c1 (configuration not stated) | 3.3
54 | CC1CCCN1CCc1ccc2nc(-c3cccs3)ccc2c1 (configuration not stated) | 3.6
55 | C=C(N(C)Cc1ccc(-c2ccccc2)cc1)N1CCN(C(C)C)CC1 | 1.8
56 | c1ccc(-c2ccc(OCCCN3CCCCC3)cc2)cc1 | 2.9
57 | CN(Cc1ccc(-c2ccccc2)cc1)C(=O)N1CCC[C@H]1CN1CCCC1 | 2.6
58 | CC(C)N1CCN(C(=O)N2CCC(C(=O)OC(C)(C)C)CC2)CC1 | 0.6
59 | O=C(/C=C/c1ccc(C(F)(F)F)cc1)N1CCC[C@H]1CN1CCCC1 | 2.4
60 | CC(C)N1CCN(C(=O)N2CCC(C(=O)N3CC4CCC(CC4)C3)CC2)CC1 | 0.9
61 | O=C(NCc1ccc(C(F)(F)F)cc1)N1CCC[C@H]1CN1CCCC1 | 1.8
62 | COc1cc2c(cc1OC)CN(C(=O)N1CCN(C(C)C)CC1)CC2 | 1
63 | CC(C)N1CCN(C(=O)N2CCC(Cc3ccccc3)CC2)CC1 | 2
64 | CC(C)N1CCN(C(=O)N2Cc3ccccc3C2)CC1 | 0.7
65 | CC(C)N1CCN(C(=O)N2CCc3ccccc3C2)CC1 | 1
66 | CC(C)N1CCN(C(=O)N2CCC(NC(=O)C3CCCC3)CC2)CC1 | 0.2

Row | Structure (SMILES) | logD
67 | CCOc1ccc(-n2ncc(-c3ccc4cc(CCN5CCC[C@H]5C)ccc4n3)c2C)nn1 | 3.8
68 | C[C@@H]1CCCN1CCc1cc2cc(-c3ccc(C#N)cc3)ccc2o1 | 3.2
69 | O=C(N1CCN(C2CC2)CC1)N1Cc2ccccc2C1 | 0.1
70 | CC(C)N1CCN(C(=O)N2CCC(c3ccccc3)CC2)CC1 | 1.6
71 | CC(C)N1CCN(C(=O)N2CC=C(c3ccccc3)CC2)CC1 | 1.4
72 | O=C(N1Cc2ccccc2C1)N1CCC[C@H]1CN1CCCC1 | 0.9
73 | Cc1c(-c2ccc3cc(CCN4CCC[C@H]4C)ccc3n2)cnn1-c1ccccn1 | 3.4
74 | O=C(N1CCN(C2CCCC2)CC1)N1Cc2ccccc2C1 | 1.1
75 | Cc1nn(C)cc1-c1ccc2cc(CCN3CCC[C@H]3C)ccc2n1 | 2.6
76 | COc1cccc2nc(-c3ccc(OC4CCN(C5CCC5)CC4)cc3)n(C)c(=O)c12 | 2.2
77 | COc1ccc2nc(-c3ccc(OC4CCN(C5CCC5)CC4)cc3)n(C)c(=O)c2c1 | 2.2
78 | COc1cccc2c(=O)n(C)c(-c3ccc(OC4CCN(C5CCC5)CC4)cc3)nc12 | 2.2
79 | Cn1c(-c2ccc(OC3CCN(C4CCC4)CC3)cc2)nc2c(Cl)cccc2c1=O | 2.8
80 | Cn1c(-c2ccc(OC3CCN(C4CCC4)CC3)cc2)nc2c(C(F)(F)F)cccc2c1=O | 3.1
81 | Cn1c(-c2ccc(OC3CCN(C4CCC4)CC3)cc2)nc2c(F)cccc2c1=O | 2.4
82 | COc1ccc2c(=O)n(C)c(-c3ccc(OC4CCN(C5CCC5)CC4)cc3)nc2c1 | 2.2
83 | Cn1c(-c2ccc(OC3CCN(C4CCCC4)CC3)cc2)nc2ccccc2c1=O | 2.6
84 | Cc1nc2cc(F)ccc2c(=O)n1-c1ccc(OCCCN2CCCC2)cc1 | 1.9
85 | Cc1nc2c(C(F)(F)F)cccc2c(=O)n1-c1ccc(OCCCN2CCCC2)cc1 | 2.6
86 | COc1cccc2c(=O)n(-c3ccc(OCCCN4CCCC4)cc3)c(C)nc12 | 1.7
87 | COc1ccc2c(=O)n(-c3ccc(OCCCN4CCCC4)cc3)c(C)nc2c1 | 1.7
88 | Cc1nc2cccc(Cl)c2c(=O)n1-c1ccc(OCCCN2CCCC2)cc1 | 2.4

Row | Structure (SMILES) | logD
89 | Cc1nc2cc(C(F)(F)F)ccc2c(=O)n1-c1ccc(OCCCN2CCCC2)cc1 | 2.6
90 | COc1cccc2nc(C)n(-c3ccc(OCCCN4CCCC4)cc3)c(=O)c12 | 1.7
91 | COc1ccc2nc(C)n(-c3ccc(OCCCN4CCCC4)cc3)c(=O)c2c1 | 1.7
92 | Cc1ccc2nc(C)n(-c3ccc(OCCCN4CCCC4)cc3)c(=O)c2c1 | 2.2
93 | Cc1ccc2c(=O)n(-c3ccc(OCCCN4CCCC4)cc3)c(C)nc2c1 | 2.2
94 | Cc1cccc2c(=O)n(-c3ccc(OCCCN4CCCC4)cc3)c(C)nc12 | 2.2
95 | Cc1nc2ccc(F)cc2c(=O)n1-c1ccc(OCCCN2CCCC2)cc1 | 1.9
96 | O=c1c2ccccc2nc(-c2ccc(OCCCN3CCCCC3)cc2)n1Cc1ccccc1 | 3.8
97 | O=c1c2ccccc2nc(-c2ccc(OCCCN3CCCCC3)cc2)n1-c1ccccc1 | 3.8
98 | Cn1c(-c2ccc(OCCCN3CCCCC3)cc2)nc2ccccc2c1=O | 2.2
99 | CCCn1c(-c2ccc(OCCCN3CCCCC3)cc2)nc2ccccc2c1=O | 3.1
100 | Cn1c(-c2ccc(OCCCN3CCCC3)cc2)nc2ccccc2c1=O | 1.8
101 | Cn1c(-c2ccc(OC3CCN(C4CCC4)CC3)cc2)nc2ccccc2c1=O | 2.2
102 | CC(C)n1c(-c2ccc(OCCCN3CCCCC3)cc2)nc2ccccc2c1=O | 3
103 | COc1nccc2c(=O)n(C)c(-c3ccc(OC4CCN(C5CCC5)CC4)cc3)nc12 | 1.6
104 | Cc1cccc2c(=O)n(C)c(-c3ccc(OC4CCN(C5CCC5)CC4)cc3)nc12 | 2.7
105 | Cc1nc2c(F)cccc2c(=O)n1-c1ccc(OCCCN2CCCC2)cc1 | 1.9
106 | CCn1c(-c2ccc(OCCCN3CCCCC3)cc2)nc2ccccc2c1=O | 2.6
107 | Cc1nc2cccc(C(F)(F)F)c2c(=O)n1-c1ccc(OCCCN2CCCC2)cc1 [MK-0249] | 2.6
